One data set has as its target GLP-1R (Homo sapiens, UniProt P43220). Description: GLP-1R activation: cAMP increase in CHO cells stably expressing GLP-1R. It counts as cell-based.
Data set [1] is described as follows: Microsomal stability, human liver microsomes (predicted hepatic clearance). The settings on record: predicted from in vitro microsomal stability data.
Setting [2] is: cAMP increase, CHO cells stably expressing GLP-1R, 10 point dose response, 30 minutes incubation, read-out: EC50.

Like-named read-outs stand apart in the source and are kept apart here. Some results are limits rather than exact numbers.

Chain of GLP-1R (P43220 24-463): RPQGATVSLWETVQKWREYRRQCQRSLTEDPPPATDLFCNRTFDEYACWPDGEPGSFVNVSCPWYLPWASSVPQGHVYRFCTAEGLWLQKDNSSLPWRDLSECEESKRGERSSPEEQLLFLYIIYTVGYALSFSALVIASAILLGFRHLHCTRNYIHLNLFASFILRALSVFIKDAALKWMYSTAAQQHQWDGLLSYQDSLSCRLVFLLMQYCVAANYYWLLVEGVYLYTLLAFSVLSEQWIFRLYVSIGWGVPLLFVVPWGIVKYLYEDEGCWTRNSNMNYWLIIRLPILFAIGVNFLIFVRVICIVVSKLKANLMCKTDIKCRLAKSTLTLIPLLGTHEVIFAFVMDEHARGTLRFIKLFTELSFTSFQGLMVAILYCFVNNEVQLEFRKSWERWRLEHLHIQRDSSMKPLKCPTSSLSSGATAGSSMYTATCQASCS

Broadly, the EC50 is the concentration that produces a half-maximal response. In the case of `CC1(C)CC(Cn2c(Cc3ccc(-c4cccc(OCc5ccc(C#N)cc5F)n4)cc3F)nc3ccc(C(=O)O)cc32)O1` (single isomer, unassigned) [Example 905, 2-(4-(6-((4-cyano-2-fluorobenzyl)oxy)pyridin-2-yl)-2-fluorobenzyl)-1-((4,4-dimethyloxetan-2-yl)methyl)-1H-benzo[d]imidazole-6-carboxylic acid], the EC50 at GLP-1R (setting [2]) turned out to be 30.9 nM. Moreover, the “Predicted Hepatic Clearance (Pred. Cl.)” value in data set [1] is 4.33 mL/min/kg.

For the compound `N#Cc1ccc(COc2cccc(-c3cc(F)c(Cc4nc5ccc(C(=O)O)cc5n4Cc4ncccn4)cc3F)n2)c(F)c1` [Example 269, 2-(4-(6-((4-cyano-2-fluorobenzyl)oxy)pyridin-2-yl)-2,5-difluorobenzyl)-1-(pyrimidin-2-ylmethyl)-1H-benzo[d]imidazole-6-carboxylic acid], the EC50 at GLP-1R (setting [2]) was 51.7 nM. Further, in data set [1], the “Predicted Hepatic Clearance (Pred. Cl.)” value is 5.83 mL/min/kg.

Consider `N#Cc1ccc(COc2cccc(-c3cc(F)c(Cc4nc5ccc(C(=O)O)cc5n4[C@H]4COC[C@H]4F)cc3F)n2)c(F)c1` [Example 611], for which, at GLP-1R (setting [2]), the EC50 came to 0.29 nM. The “Predicted Hepatic Clearance (Pred. Cl.)” value in data set [1] is 4.83 mL/min/kg.

The compound `COCCn1c(Cc2cc(F)c(-c3nccc(OCc4ccc(C#N)cc4F)n3)cc2F)nc2ccc(C(=O)O)cc21` [Example 159, 2-(4-(4-((4-cyano-2-fluorobenzyl)oxy)pyrimidin-2-yl)-2,5-difluorobenzyl)-1-(2-methoxyethyl)-1H-benzo[d]imidazole-6-carboxylic acid] came in with a concentration giving a half-maximal response (EC50) at GLP-1R (EC50 (nM)) of 7.78 nM. The “Predicted Hepatic Clearance (Pred. Cl.)” value in data set [1] was 6 mL/min/kg.

Regarding `N#Cc1ccc(COc2cccc(-c3cc(F)c(Cc4nc5ccc(C(=O)O)cc5n4[C@@H]4COC[C@@H]4O)cc3F)n2)c(F)c1` [Example 614], on GLP-1R (setting [2]), the EC50 was determined as 0.79 nM. The “Predicted Hepatic Clearance (Pred. Cl.)” value in data set [1] was 1.83 mL/min/kg.

As for `O=C(O)c1ccc2nc(Cc3cc(F)c(-c4ccnc(OCc5ccc(Cl)cc5F)n4)cc3F)n(C[C@@H]3CCO3)c2c1` [Example 413, (S)-2-(4-(2-((4-chloro-2-fluorobenzyl)oxy)pyrimidin-4-yl)-2,5-difluorobenzyl)-1-(oxetan-2-ylmethyl)-1H-benzo[d]imidazole-6-carboxylic acid], the EC50 on GLP-1R (setting [2]) turned out to be 0.07 nM. Besides, the “Predicted Hepatic Clearance (Pred. Cl.)” value in data set [1] is under 1.83 mL/min/kg.

In the case of `CC(C)(C)OC(=O)N(CCn1c(Cc2cc(F)c(-c3cccc(OCc4ccc(C#N)cc4F)n3)cc2F)nc2ccc(C(=O)O)cc21)C1CC1` [Example 907, 1-(2-((tert-butoxycarbonyl)(cyclopropyl)amino)ethyl)-2-(4-(6-((4-cyano-2-fluorobenzyl)oxy)pyridin-2-yl)-2,5-difluorobenzyl)-1H-benzo[d]imidazole-6-carboxylic acid], the EC50 on GLP-1R (read-out: EC50) was 9960 nM. The “Predicted Hepatic Clearance (Pred. Cl.)” value in data set [1] was 8.5 mL/min/kg.

Take `[2H]C([2H])(Oc1cccc(-c2cc(F)c(Cc3nc4ccc(C(=O)O)cc4n3CCOC)cc2F)n1)c1ccc(C#N)cc1F` [Example 543, 2-(4-(6-((4-cyano-2-fluorophenyl)methoxy-d2)pyridin-2-yl)-2,5-difluorobenzyl)-1-(2-methoxyethyl)-1H-benzo[d]imidazole-6-carboxylic acid]: the EC50 on GLP-1R (setting [2]) turned out to be 1.51 nM. In addition, the “Predicted Hepatic Clearance (Pred. Cl.)” value in data set [1] is 4.67 mL/min/kg.

Consider `CCOC(=O)c1ccc2nc(Cc3cc(F)c(-c4cccc(OCc5ccc(C#N)cc5F)n4)cc3F)n(CCOC)c2c1` [Example 847, Ethyl 2-(4-(6-((4-cyano-2-fluorobenzyl)oxy)pyridin-2-yl)-2,5-difluorobenzyl)-1-(2-methoxyethyl)-1H-benzo[d]imidazole-6-carboxylate], for which the EC50 on GLP-1R (setting [2]) was determined as 537 nM. For the same compound, in data set [1], the “Predicted Hepatic Clearance (Pred. Cl.)” value was 6 mL/min/kg.

Regarding `COc1cc(C#N)ccc1COc1nccc(-c2ccc(Cc3nc4ccc(C(=O)O)nc4n3CC3(CF)CC3)cc2F)n1` [Example 322, 2-(4-(2-((4-cyano-2-methoxybenzyl)oxy)pyrimidin-4-yl)-3-fluorobenzyl)-3-((1-(fluoromethyl)cyclopropyl)methyl)-3H-imidazo[4,5-b]pyridine-5-carboxylic acid], at GLP-1R (setting [2]), the EC50 was 0.58 nM. Besides, the “Predicted Hepatic Clearance (Pred. Cl.)” value in data set [1] is 12.3 mL/min/kg.

In the case of `COCCn1c(Cc2c(F)cc(-c3cccnc3OC(C)c3ccc(Cl)cc3F)cc2F)nc2ccc(C(=O)O)cc21` (stereo not shown) [Example 372, 2-(4-(2-(1-(4-chloro-2-fluorophenyl)ethoxy)pyridin-3-yl)-2,6-difluorobenzyl)-1-(2-methoxyethyl)-1H-benzo[d]imidazole-6-carboxylic acid], the EC50 at GLP-1R (setting [2]) is 243 nM. The “Predicted Hepatic Clearance (Pred. Cl.)” value in data set [1] was 7.83 mL/min/kg.

For the compound `COc1cc(Cl)ncc1COc1cccc(-c2cc(F)c(Cc3nc4ccc(C(=O)O)cc4n3C[C@@H]3CCO3)cc2F)n1` [Example 853], the EC50 on GLP-1R (setting [2]) was 0.15 nM. Further, in data set [1], the “Predicted Hepatic Clearance (Pred. Cl.)” value was 9 mL/min/kg.

As for `O=C(O)c1ccc2nc(Cc3ccc(-c4ccc(F)c(OCc5ccc(C(F)F)cc5F)n4)cc3F)n(C[C@@H]3CCO3)c2c1` [Example 773], the EC50 at GLP-1R (setting [2]) was 0.12 nM. Besides, in data set [1], the “Predicted Hepatic Clearance (Pred. Cl.)” value is 1.83 mL/min/kg.

Turning to `N#Cc1ccc(COc2ccc(F)c(-c3ccc(Cc4nc5ccc(C(=O)O)cc5n4C[C@@H]4CCO4)cc3)n2)c(F)c1` [Example 794], the EC50 on GLP-1R (setting [2]) stood at 0.97 nM. Also, the “Predicted Hepatic Clearance (Pred. Cl.)” value in data set [1] was 6.17 mL/min/kg.

As to `N#Cc1ccc(COc2nc(-c3ccc(Cc4nc5ccc(C(=O)O)cc5n4C[C@@H]4CCO4)cc3)ccc2F)c(F)c1` [Example 795], on GLP-1R (setting [2]), the EC50 worked out at 0.65 nM. The “Predicted Hepatic Clearance (Pred. Cl.)” value in data set [1] is 1.83 mL/min/kg.

`CN(C)CC1(Cn2c(Cc3ccc(-c4cccc(OCc5ccc(C#N)cc5F)n4)cc3F)nc3ccc(C(=O)O)cc32)CC1` [Example 290, 2-(4-(6-((4-cyano-2-fluorobenzyl)oxy)pyridin-2-yl)-2-fluorobenzyl)-1-((1-((dimethylamino)methyl)cyclopropyl)methyl)-1H-benzo[d]imidazole-6-carboxylic acid]: the EC50 at GLP-1R (setting [2]) is 62.3 nM. Moreover, in data set [1], the “Predicted Hepatic Clearance (Pred. Cl.)” value was 8.42 mL/min/kg.

As for `COCC1(Cn2c(Cc3cc(F)c(-c4cccc(OCc5ccc(C#N)cc5F)n4)cc3F)nc3ccc(C(=O)O)cc32)CCCO1` (stereo not shown) [Example 652], the EC50 at GLP-1R (setting [2]) amounted to 8.79 nM. Further, the “Predicted Hepatic Clearance (Pred. Cl.)” value in data set [1] is 8 mL/min/kg.

Regarding `CC(=O)N1CC(F)(F)C[C@@H]1Cn1c(Cc2cc(F)c(-c3cccc(OCc4ccc(C#N)cc4F)n3)cc2F)nc2ccc(C(=O)O)cc21` [Example 539, (R)-1-((1-acetyl-4,4-difluoropyrrolidin-2-yl)methyl)-2-(4-(6-((4-cyano-2-fluorobenzyl)oxy)pyridin-2-yl)-2,5-difluorobenzyl)-1H-benzo[d]imidazole-6-carboxylic acid], the EC50 at GLP-1R (read-out: EC50) came out at 0.7 nM. The “Predicted Hepatic Clearance (Pred. Cl.)” value in data set [1] is 6.33 mL/min/kg.

Consider `N#Cc1ccc(COc2ccc(F)c(-c3cc(F)c(Cc4nc5ccc(C(=O)O)cc5n4CCOC4CC4)cc3F)n2)c(F)c1` [Example 899], for which the EC50 at GLP-1R (setting [2]) was found to be 2.26 nM. In addition, in data set [1], the “Predicted Hepatic Clearance (Pred. Cl.)” value is 4 mL/min/kg.

Turning to `O=C(O)c1cc(F)c2nc(Cc3cc(F)c(-c4nc(OCc5ccc(C(F)F)cc5F)ccc4F)cc3F)n(C[C@@H]3CCO3)c2c1` [Example 769], the EC50 at GLP-1R (setting [2]) worked out at 0.03 nM. In data set [1], the “Predicted Hepatic Clearance (Pred. Cl.)” value is 3.67 mL/min/kg.

These data come from patent publication US11702404B2, “GLP-1R modulating compounds” (priority 2019, dated 2023).
